Assay results published in ChEMBL document CHEMBL1201862, “PubChem BioAssay data set” (2004).
Activity calls are given as the source filed them.

Experiments:
HEK293 = test: EBV LMP1 TES2 canonical NF-kB signalling blockers – cell-based, HEK293, luciferase, cherry-pick, dose response (AID 588343); type: functional; conditions: Homo sapiens
Cytochrome P450 2C19 = Cytochrome P450 2C19 (Homo sapiens, UniProt P33261); test: Cytochrome panel assay with activity outcomes. Panel member name: p450-cyp2c19 Compounds with AC50 equal or less than 10 uM are considered active; type: functional; conditions: read-out: AC50
Cytochrome P450 1A2 = target: T1, Cytochrome P450 1A2 (Homo sapiens, UniProt P05177);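 also: PubChem cytochrome P450 panel assay, CYP1A2 panel member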
T1 sequence (P05177 whole entry): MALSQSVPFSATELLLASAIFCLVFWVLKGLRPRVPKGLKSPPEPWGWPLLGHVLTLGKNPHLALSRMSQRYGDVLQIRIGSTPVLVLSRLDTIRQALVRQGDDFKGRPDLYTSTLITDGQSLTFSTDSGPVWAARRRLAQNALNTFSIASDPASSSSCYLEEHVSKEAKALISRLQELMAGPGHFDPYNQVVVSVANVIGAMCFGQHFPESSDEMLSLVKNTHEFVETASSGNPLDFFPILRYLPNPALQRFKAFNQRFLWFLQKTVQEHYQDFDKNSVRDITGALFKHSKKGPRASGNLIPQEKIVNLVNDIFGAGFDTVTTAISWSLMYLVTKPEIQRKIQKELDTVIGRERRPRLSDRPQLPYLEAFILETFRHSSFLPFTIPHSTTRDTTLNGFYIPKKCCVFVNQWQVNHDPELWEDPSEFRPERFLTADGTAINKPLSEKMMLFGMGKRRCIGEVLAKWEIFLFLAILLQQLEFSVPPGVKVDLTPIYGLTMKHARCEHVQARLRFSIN

Cytochrome P450 3A4 = Cytochrome P450 3A4 (Homo sapiens, UniProt P08684);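 also: CYP3A4 tested as one member of a cytochrome P450 panel screen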
Cytochrome P450 2C9 = Cytochrome P450 2C9 (Homo sapiens, UniProt P11712)
[1] = decrease of insulin promoter-GFP reporter – imaging, high-content screening, mouse beta cells (AID 1628); type: functional; conditions: MIN6
[2] = MIN6 cell viability loss – mouse insulinoma, cytotoxicity control, dose response (AID 2122); type: functional;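 also: confirmatory high-throughput counterscreen run to flag cytotoxic compounds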
[3] = target: T2, Corticotropin-releasing factor receptor 2/Corticotropin-releasing factor-binding protein (Homo sapiens, UniProt P24387+Q13324); test: activators of CRF receptor 2 with binding protein – uHTS hits, confirmation (AID 602473); type: functional; conditions: read-out: EC50_Mean
T2 sequence (Q13324 whole entry): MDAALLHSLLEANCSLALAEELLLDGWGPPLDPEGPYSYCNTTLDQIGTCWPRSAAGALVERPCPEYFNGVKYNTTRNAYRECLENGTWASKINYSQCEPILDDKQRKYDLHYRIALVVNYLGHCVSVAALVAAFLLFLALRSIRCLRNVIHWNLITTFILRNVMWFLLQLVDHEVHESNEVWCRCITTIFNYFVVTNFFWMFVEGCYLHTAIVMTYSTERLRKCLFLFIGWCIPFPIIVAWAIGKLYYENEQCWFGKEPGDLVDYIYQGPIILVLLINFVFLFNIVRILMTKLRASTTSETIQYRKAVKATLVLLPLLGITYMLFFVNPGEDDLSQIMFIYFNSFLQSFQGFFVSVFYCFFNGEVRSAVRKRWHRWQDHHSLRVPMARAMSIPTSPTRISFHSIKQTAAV
T2 sequence (P24387 whole entry): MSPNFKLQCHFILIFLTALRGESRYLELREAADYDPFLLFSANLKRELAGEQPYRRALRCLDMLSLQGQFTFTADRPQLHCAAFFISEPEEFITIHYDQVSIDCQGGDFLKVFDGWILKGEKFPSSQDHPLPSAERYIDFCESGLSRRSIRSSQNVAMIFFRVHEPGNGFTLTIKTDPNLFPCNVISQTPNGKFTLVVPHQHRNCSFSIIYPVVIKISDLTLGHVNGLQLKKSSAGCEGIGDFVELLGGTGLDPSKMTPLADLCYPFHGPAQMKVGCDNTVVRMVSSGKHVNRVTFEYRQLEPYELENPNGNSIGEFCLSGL

[4] = reduction of Shn3 3'UTR-driven luciferase in osteoblasts – cell-based, Clone20 osteoblasts, firefly luciferase, cherry-picked, dose response (AID 624132); type: functional;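 also: firefly luciferase luminescence from reporter carrying the Shn3 3'UTR in osteoblasts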
[5] = loss of viability in HepG2 cells – cell-based, CellTiter-Glo, cherry-picked, cytotoxicity control for Shn3 inhibitor project, dose response (AID 624134); type: functional
[6] = non-specific 3'UTR reporter inhibition in Clone20-Shn3RL – cell-based, Renilla luciferase, cherry-picked, counter-screen for Shn3 inhibitor project, dose response (AID 624133); type: functional
[7] = test system: Streptococcus sp. 'group A'; test: Streptococcus pyogenes SK(-)GAS viability under kanamycin – luminescence, BacTiterGlo, confirmation, counter-screen for streptokinase expression inhibitor project, dose response (AID 1900); type: functional, organism-based
Streptokinase A = target: T3, Streptokinase A (Streptococcus pyogenes serotype M1, UniProt P10520); test: viability-normalized secreted streptokinase activity reduction – plasminogen activation absorbance, OD405, dose response (AID 1914); type: functional, Streptococcus pyogenes M1 GAS;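 also: secreted streptokinase activity via plasminogen activation per viability signal from cell pellet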
T3 sequence (P10520 whole entry): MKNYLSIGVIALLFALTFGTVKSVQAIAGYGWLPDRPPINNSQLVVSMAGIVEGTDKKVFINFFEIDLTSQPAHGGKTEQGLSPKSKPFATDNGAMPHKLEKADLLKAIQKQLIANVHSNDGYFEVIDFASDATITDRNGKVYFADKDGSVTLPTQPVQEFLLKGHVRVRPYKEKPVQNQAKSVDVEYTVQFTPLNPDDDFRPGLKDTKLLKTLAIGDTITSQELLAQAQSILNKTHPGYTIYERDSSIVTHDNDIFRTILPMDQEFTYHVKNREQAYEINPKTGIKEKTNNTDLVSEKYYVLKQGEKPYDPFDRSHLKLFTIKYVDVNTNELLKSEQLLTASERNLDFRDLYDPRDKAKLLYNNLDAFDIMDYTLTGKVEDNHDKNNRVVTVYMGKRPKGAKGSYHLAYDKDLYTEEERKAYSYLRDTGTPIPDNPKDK

Streptococcus = test: GAS UMAA2166 growth inhibition – luminescence, BacTiterGlo, counter-screen for streptokinase expression inhibitor project, dose response (AID 1915); type: functional, organism-based;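 also: potency for reduction of bacterial viability or growth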
[8] = target: DNA dC->dU-editing enzyme APOBEC-3A (Homo sapiens, UniProt P31941); test: Dose Response confirmation of small molecule APOBEC3A DNA Deaminase Inhibitors via a fluorescence-based single-stranded DNA deaminase assay. [Related pubchem assays (depositor defined):AID493011, AID493024]; type: functional
[9] = target: DNA dC->dU-editing enzyme APOBEC-3G (Homo sapiens, UniProt Q9HC16); type: functional;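 also: Dose-response counterscreen measuring inhibition of APOBEC3G DNA deaminase activity, run while confirming APOBEC3A inhibitors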
Mu-type opioid receptor = Mu-type opioid receptor (Homo sapiens, UniProt P35372); type: functional, cell-based;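 also: U2OS cells with beta-arrestin recruitment to OPRM1 by beta-gal complementation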
[10] = target: 5-hydroxytryptamine receptor 2A (Mus musculus, UniProt P35363); type: functional, cell-based;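 also: CHO-K1 cells with tagged receptor and beta-arrestin; agonist potency measured as compound-induced activation of the receptor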
[11] = target: T4, Calpain-2 catalytic subunit (Sus scrofa, UniProt P43367); test: m-calpain protease blockers, concentration series – biochemical, fluorogenic peptide substrate, dose response (AID 1420); type: functional
T4 sequence (P43367 whole entry): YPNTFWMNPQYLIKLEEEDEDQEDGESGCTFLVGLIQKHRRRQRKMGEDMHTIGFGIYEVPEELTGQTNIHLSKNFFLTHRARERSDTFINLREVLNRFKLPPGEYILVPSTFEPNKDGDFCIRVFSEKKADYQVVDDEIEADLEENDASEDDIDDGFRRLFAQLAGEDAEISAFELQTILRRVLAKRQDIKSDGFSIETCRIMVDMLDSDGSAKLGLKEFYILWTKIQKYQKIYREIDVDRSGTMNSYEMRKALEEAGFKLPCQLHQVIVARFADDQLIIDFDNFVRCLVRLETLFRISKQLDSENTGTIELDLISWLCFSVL

[12] = Counterscreen for inhibitors of Trypanosoma brucei methionyl tRNA synthetase (MetRS): Luminescence-based cell-based high throughput dose response assay to identify compounds that are cytotoxic to Jurkat human T lymphocyte cells.; type: functional
[13] = target: T5, Methionyl-tRNA synthetase, putative (Trypanosoma brucei brucei, UniProt Q38C91); type: functional, Trypanosoma brucei brucei strain 927/4 GUTat10.1
T5 sequence (Q38C91 whole entry): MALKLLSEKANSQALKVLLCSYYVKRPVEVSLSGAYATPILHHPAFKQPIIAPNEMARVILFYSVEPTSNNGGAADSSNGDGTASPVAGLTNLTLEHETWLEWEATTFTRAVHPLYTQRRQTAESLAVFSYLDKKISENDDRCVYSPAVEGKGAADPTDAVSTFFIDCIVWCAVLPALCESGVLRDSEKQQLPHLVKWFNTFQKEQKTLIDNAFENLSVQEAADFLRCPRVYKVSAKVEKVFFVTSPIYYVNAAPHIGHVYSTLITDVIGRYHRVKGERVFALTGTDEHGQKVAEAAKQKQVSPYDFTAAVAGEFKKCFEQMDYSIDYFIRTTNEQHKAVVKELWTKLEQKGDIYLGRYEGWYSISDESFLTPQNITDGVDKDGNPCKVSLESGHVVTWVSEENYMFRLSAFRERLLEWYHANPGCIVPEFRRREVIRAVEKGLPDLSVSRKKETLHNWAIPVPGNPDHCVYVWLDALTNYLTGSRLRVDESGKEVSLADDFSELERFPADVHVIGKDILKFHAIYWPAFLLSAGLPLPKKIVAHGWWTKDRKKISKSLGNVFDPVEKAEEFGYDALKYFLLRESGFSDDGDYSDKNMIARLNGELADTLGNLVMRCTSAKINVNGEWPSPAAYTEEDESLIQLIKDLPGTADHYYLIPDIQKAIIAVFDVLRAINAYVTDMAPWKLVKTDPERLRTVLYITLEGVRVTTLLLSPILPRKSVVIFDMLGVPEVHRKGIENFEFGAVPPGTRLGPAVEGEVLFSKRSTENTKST

Cytochrome P450 3A4, sequence (P08684 whole entry): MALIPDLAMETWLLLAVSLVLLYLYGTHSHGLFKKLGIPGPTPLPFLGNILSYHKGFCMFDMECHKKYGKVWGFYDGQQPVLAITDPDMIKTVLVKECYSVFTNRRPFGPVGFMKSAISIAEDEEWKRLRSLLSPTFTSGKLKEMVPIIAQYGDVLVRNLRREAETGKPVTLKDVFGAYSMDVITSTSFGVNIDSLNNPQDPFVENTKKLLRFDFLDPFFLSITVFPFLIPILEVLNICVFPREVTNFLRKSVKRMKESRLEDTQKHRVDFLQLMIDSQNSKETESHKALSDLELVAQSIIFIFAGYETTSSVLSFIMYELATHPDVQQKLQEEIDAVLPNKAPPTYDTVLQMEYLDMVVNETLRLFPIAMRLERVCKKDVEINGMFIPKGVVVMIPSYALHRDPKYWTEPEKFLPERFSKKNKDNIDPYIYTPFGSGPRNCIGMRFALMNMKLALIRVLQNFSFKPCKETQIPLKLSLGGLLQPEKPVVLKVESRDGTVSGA
Cytochrome P450 2C19, sequence (P33261 whole entry): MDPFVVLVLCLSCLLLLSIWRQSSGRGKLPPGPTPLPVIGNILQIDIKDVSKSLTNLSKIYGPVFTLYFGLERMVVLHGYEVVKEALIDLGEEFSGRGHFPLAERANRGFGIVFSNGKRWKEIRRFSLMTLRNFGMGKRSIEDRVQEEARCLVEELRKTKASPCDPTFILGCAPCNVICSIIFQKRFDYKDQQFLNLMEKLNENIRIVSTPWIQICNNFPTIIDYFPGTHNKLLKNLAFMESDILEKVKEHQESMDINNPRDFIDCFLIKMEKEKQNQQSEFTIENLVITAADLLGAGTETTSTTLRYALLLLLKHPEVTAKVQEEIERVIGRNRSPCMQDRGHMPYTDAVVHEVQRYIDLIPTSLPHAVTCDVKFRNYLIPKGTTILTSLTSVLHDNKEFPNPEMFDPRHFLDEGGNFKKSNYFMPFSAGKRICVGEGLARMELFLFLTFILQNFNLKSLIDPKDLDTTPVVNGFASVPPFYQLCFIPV
Mu-type opioid receptor, sequence (P35372 whole entry): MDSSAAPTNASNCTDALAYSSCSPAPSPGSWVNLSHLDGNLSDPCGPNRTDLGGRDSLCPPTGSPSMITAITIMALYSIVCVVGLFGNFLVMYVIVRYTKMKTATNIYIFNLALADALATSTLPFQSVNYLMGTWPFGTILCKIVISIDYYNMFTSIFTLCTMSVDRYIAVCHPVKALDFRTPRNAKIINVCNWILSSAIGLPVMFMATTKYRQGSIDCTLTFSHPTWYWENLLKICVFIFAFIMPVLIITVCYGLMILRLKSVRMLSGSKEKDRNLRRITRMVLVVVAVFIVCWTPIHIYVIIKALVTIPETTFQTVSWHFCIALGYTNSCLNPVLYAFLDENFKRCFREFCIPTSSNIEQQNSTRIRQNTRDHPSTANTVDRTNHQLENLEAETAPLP
Cytochrome P450 2C9, sequence (P11712 whole entry): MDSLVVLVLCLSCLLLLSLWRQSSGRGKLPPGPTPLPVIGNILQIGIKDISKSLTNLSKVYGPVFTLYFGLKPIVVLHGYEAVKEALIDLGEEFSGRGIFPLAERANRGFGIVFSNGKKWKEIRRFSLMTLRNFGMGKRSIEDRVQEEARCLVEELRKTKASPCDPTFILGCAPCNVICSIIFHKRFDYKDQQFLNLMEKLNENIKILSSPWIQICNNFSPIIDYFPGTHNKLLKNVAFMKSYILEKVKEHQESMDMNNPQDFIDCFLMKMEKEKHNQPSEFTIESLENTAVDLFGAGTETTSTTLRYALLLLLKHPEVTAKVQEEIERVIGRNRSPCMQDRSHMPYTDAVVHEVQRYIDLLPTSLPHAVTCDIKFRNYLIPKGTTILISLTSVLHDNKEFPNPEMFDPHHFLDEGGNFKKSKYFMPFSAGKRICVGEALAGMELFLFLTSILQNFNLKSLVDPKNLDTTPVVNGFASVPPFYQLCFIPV
5-hydroxytryptamine receptor 2A, sequence (P35363 whole entry): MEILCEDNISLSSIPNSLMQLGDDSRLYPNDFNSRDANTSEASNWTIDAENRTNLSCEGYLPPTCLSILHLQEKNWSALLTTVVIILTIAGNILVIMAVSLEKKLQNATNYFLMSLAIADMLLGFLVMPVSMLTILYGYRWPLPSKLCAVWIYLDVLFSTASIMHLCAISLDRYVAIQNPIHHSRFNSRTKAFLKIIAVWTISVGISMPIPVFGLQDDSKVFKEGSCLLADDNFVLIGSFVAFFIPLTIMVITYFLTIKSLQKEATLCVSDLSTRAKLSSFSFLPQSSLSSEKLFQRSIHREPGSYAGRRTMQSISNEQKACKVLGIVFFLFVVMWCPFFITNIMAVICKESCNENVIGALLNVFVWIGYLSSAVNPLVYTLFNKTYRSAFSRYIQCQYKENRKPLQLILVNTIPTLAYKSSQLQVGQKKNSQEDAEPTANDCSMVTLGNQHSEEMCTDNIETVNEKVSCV
DNA dC->dU-editing enzyme APOBEC-3G, sequence (Q9HC16 whole entry): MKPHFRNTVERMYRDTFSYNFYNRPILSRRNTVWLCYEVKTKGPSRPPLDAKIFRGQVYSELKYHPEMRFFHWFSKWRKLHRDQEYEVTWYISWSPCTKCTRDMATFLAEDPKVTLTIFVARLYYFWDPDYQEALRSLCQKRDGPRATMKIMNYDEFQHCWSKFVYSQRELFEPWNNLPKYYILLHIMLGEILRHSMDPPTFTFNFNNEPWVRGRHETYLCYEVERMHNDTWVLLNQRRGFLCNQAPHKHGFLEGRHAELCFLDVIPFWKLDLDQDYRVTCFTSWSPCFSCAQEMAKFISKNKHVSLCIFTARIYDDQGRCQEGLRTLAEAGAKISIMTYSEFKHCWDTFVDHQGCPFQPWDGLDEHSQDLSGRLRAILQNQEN
DNA dC->dU-editing enzyme APOBEC-3A, sequence (P31941 whole entry): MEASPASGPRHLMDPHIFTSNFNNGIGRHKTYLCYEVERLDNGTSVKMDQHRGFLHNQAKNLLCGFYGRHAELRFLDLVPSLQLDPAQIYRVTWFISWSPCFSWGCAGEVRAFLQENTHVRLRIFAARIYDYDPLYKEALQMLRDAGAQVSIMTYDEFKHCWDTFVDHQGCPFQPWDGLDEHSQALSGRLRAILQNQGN

Cc1cc(C(=O)CN2C(=O)c3ccccc3C2=O)c(C)n1Cc1cccs1
AC50 (HEK293): 4.41 µM (active)

CC(C)(C)C(=O)N1CCN(c2ccc([N+](=O)[O-])c(NCC3CCCO3)c2)CC1 (configuration not stated)
AC50 (Cytochrome P450 2C19): 25.1 µM (inconclusive)
AC50 (Cytochrome P450 1A2): 14.1 µM (inconclusive)
AC50 (Cytochrome P450 3A4): inconclusive

O=[N+]([O-])c1cccnc1N1CCOCC1
AC50 (Cytochrome P450 1A2): 28.2 µM (inconclusive)
AC50 (Cytochrome P450 2C9): 12.6 µM (inconclusive)
AC50 (Cytochrome P450 3A4): inconclusive

C=CCn1c(-c2ccc(OC)cc2)nc2ccccc21
IC50 [1]: 4.04 µM (active)
IC50 [2]: 4.36 µM (active)
EC50 [3]: > 53 µM (inactive)

C=CCn1c(NCCc2ccccc2)nc2c1c(=O)n(C)c(=O)n2C
IC50 [1]: 2.56 µM (active)
IC50 [2]: 1.86 µM (active)
AC50 [4]: 1.83 µM (active)
AC50 [5]: 57.2 µM (active)
AC50 [6]: 7.83 µM (active)

CCOC(=O)c1cnc2cc(Cl)c(OC)cc2c1NCC1CCCO1 (configuration not stated)
IC50 [1]: 2.7 µM (active)
IC50 [2]: 15 µM (inactive)

O=C(c1cccc(F)c1)N1CCC2(CC1)CN(c1ccccc1)C2
AC50 (Cytochrome P450 3A4): inconclusive

O=C(c1cnccn1)N1CCC2(CC1)CN(C(c1ccccc1)c1ccccc1)C2
AC50 (Cytochrome P450 1A2): 25.1 µM (inconclusive)
AC50 (Cytochrome P450 3A4): inconclusive

O=C(c1ccncc1)N1CCC2(CC1)CN(C(c1ccccc1)c1ccccc1)C2
AC50 (Cytochrome P450 1A2): 15.8 µM (inconclusive)
AC50 (Cytochrome P450 3A4): inconclusive

CC(=O)c1cccc(OC(=O)c2ccc3c(=O)n4c(nc3c2)CCC4)c1
EC50 [7]: 12.6 µM (active)
EC50 (Streptokinase A): > 150 µM (not active)
EC50 (Streptococcus): 14.4 µM (active)
IC50 [8]: 6.27 µM (active)
IC50 [9]: 5.35 µM (active)

CCC(c1nnnn1-c1ccc2c(c1)OCCO2)N1CCN(C/C=C/c2ccccc2)CC1 (configuration not stated)
EC50 (Mu-type opioid receptor): 92.6 µM (inactive)
EC50 [10]: 76.2 µM (inactive)

CO/N=C(\c1nonc1N)N1CCN(c2ccc(Cl)cc2[N+](=O)[O-])CC1
IC50 [11]: > 50 µM (not active)
IC50 [12]: 83.3 µM (inactive)
IC50 [13]: 119 µM (inactive)
